Measurements from patent US7385027B2, “Membrane-permeable peptide capable of calpain inhibition” (University of Kentucky Research Foundation, priority 2003, dated 2008).

Legend:
[1] = system: cultured cortical neurons from rat brains; experiment: Ionomycin-induced cell death of cultured cortical neurons (calcein AM / propidium iodide); type: cell-based
Text: (§1) In the first experiment, cell death of the neurons was induced by exposing the culture to ionomycin. In the second experiment, cell death was induced by exposing the neurons to 30 and 60 mJ/cm^2 of UV light. The exposure to either ionomycin or UV light caused calpain I to be activated because of ionomycin-mediated calcium flux or through UV-induced receptors, channels or pore-like structures. Calcein acetoxymethyl ester was used as indicator of live neuron cells while propidium iodide was used an indicator of dead neuron cells.
In the first experiment, ten Samples were prepared. Sample 1 was a control Sample and included the cultured cortical neurons only. A baseline for the average percentage of cell death was determined to be 19%. In Sample 2, 0.4 μM ionomycin was added to the cultured neuron cells to activate calpain I. No LSEAL was added to these Samples. The addition of ionomycin to these Samples caused the percentage of dead cells to more than triple to an average of 68%. Sample 3 was the same as Sample 2 except that 0.00001 micromolar of LSEAL was added before the ionomycin was added. The percentage of dead cells averaged of 106% of no LSEAL. Sample 4 was the same as Sample 3 except that 0.0001 micromolar of LSEAL was added. The percentage of cell death was 83% of no LSEAL. Sample 5 was the same as Sample 4 except that 0.001 micromolar LSEAL was added. The percentage of cell death was 63% of no LSEAL. Sample 6 was the same as Sample 5 except that 0.01 micromolar LSEAL was added. The percentage of cell death was 61% of no LSEAL. Sample 7 was the same as Sample 6 except that 0.1 micromolar LSEAL was added. The percentage of cell death was 57% of no LSEAL. Sample 8 was the same as Sample 7 except that 1.0 micromolar LSEAL was added. The percentage of cell death was 48% of no LSEAL. Sample 9 was the same as Sample 8 except that 10.0 micromolar LSEAL was added. The percentage of cell death was 35% of no LSEAL. Sample 10 was the same as Sample 9 except that 100 micromolar LSEAL was added. The percentage of cell death was 33% of no LSEAL. […] The results are summarized in Table 1 below and the results are graphically illustrated in FIG. 1

[2] = system: cultured cortical neurons from rat brains; experiment: UV light-induced cell death of cultured cortical neurons; type: cell-based; conditions: for Dead Cells / Live Cells: cell count
Text: as §1
In the second experiment, cell death of the cultured cortical neurons was induced by UV light. […] The percentage of cell death was 18%. Sample 14 is the same as Sample 11, except for the addition of 100 μM LSEAL to the culture. The percentage of cell death was reduced from 18% to 14%. Sample 12 was exposed to 30 mJ/cm^2 of UV light. The percentage of cell death was 58%. The inclusion of the LSEAL before exposure reduced the percentage of cell death to 25%. See Sample 15. […] The data for the experiment is set forth below in Tables 3 and 4, and is graphically illustrated in FIG. 2.

calpain I = molecular target: T1, calpain I (Homo sapiens, UniProt P07384); experiment: Tau protein degradation by calpain I; type: biochemical; conditions: 100 μM LSEAL; FIG. 3
T1 sequence (P07384 1-714): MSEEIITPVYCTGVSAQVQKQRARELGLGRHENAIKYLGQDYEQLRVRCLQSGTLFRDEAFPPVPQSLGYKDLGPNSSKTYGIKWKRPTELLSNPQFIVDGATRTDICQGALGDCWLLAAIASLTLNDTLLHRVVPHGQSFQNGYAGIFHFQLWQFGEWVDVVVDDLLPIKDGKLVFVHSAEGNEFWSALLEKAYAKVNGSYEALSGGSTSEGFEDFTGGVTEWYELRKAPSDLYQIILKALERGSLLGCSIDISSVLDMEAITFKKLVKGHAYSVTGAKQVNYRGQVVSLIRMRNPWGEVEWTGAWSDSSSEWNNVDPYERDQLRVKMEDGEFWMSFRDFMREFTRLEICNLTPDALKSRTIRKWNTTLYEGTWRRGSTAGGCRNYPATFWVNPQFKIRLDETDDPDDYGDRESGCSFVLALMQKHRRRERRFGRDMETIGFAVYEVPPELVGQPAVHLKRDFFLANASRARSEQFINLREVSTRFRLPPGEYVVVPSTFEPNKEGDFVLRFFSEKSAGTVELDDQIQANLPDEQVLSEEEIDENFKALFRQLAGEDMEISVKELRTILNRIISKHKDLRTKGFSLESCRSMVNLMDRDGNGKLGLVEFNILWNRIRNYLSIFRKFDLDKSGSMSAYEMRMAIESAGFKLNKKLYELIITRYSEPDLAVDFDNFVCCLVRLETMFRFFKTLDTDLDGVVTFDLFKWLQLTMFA
T1 sequence (P04632 1-268 partner): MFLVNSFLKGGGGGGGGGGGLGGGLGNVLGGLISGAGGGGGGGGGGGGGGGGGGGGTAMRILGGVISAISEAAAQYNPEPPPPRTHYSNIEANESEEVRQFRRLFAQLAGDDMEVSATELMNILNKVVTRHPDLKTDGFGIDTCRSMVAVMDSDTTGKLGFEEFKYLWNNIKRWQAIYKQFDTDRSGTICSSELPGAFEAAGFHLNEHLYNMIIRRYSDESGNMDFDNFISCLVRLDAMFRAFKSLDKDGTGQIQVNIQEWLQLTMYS
Protocol: Another experiment was conducted to show the effect of the proteins of the present invention on the tau protein. The tau protein is a microtubule-associated protein (MAP). Tau is a well-described calpain I substrate.

[3] = 0 mJ/cm^2 UV light, LSEAL (Sample 14)
[4] = 30 mJ/cm^2 UV light, LSEAL (Sample 15)
[5] = 60 mJ/cm^2 UV light, LSEAL (Sample 16)

## Leu-Ser-Glu-Ala-Leu (LSEAL; listed as Homo sapiens)
[1]; 0.00001 micromolar LSEAL added before 0.4 μM ionomycin (Sample 3)
  Percentage Average cell death (ratioed to 0 LSEAL): 106%
[1]; 0.0001 micromolar LSEAL, 0.4 μM ionomycin (Sample 4)
  Percentage Average cell death (ratioed to 0 LSEAL): 83%
[1]; 0.001 micromolar LSEAL, 0.4 μM ionomycin (Sample 5)
  Percentage Average cell death (ratioed to 0 LSEAL): 63%
[1]; 0.01 micromolar LSEAL, 0.4 μM ionomycin (Sample 6)
  Percentage Average cell death (ratioed to 0 LSEAL): 61%
[1]; 0.1 micromolar LSEAL, 0.4 μM ionomycin (Sample 7)
  Percentage Average cell death (ratioed to 0 LSEAL): 57%
[1]; 1.0 micromolar LSEAL, 0.4 μM ionomycin (Sample 8)
  Percentage Average cell death (ratioed to 0 LSEAL): 48%
[1]; 10.0 micromolar LSEAL, 0.4 μM ionomycin (Sample 9)
  Percentage Average cell death (ratioed to 0 LSEAL): 35%
[1]; 100 micromolar LSEAL, 0.4 μM ionomycin (Sample 10)
  Percentage Average cell death (ratioed to 0 LSEAL): 33%
[2]; 0 mJ/cm^2 UV light, 100 μM LSEAL (Sample 14), control without LSEAL 18%
  % Dead Cells: 14%
[2]; [3]
  Dead Cells: 5
  Live Cells: 30
[2]; [4]
  Dead Cells: 26
  Live Cells: 78
[2]; 30 mJ/cm^2 UV light, LSEAL included before exposure (Sample 15), control without LSEAL 58%
  % Dead Cells: 25%
[2]; [5]
  Dead Cells: 25
  Live Cells: 56
[2]; 60 mJ/cm^2 UV light, culture containing LSEAL (Sample 16), control without LSEAL 74%
  % Dead Cells: 30%
Calpain I
  Effect on tau degradation by calpain I: inhibits degradation
